≈ marks a conversion by molar mass, not a printed value.
How the values were obtained:
Pseudomonas aeruginosa [1] = assay: Antibacterial activity against Pseudomonas aeruginosa PAO1 after 16 to 20 hrs by broth microdilution method; assay type: functional
Staphylococcus aureus = assay: Antibacterial activity against Staphylococcus aureus ATCC 29213 after 16 to 20 hrs by broth microdilution method; assay type: functional
Pseudomonas aeruginosa [2] = assay: Antibacterial activity against Pseudomonas aeruginosa after 16 to 20 hrs by broth microdilution method; assay type: functional
Acinetobacter baumannii = assay: Antibacterial activity against Acinetobacter baumannii after 16 to 20 hrs by broth microdilution method; assay type: functional
Escherichia coli = assay: Antibacterial activity against Escherichia coli after 16 to 20 hrs by broth microdilution method; assay type: functional
Klebsiella pneumoniae = assay: Antibacterial activity against Klebsiella pneumoniae after 16 to 20 hrs by broth microdilution method; assay type: functional
Klebsiella aerogenes = assay: Antibacterial activity against Enterobacter aerogenes after 16 to 20 hrs by broth microdilution method; assay type: functional
[3] = target: T1, UDP-3-O-acyl-N-acetylglucosamine deacetylase (Pseudomonas aeruginosa (strain ATCC 15692 / PAO1 / 1C / PRS 101 / LMG12228), UniProt P47205); assay: Inhibition of Pseudomonas aeruginosa LpxC using UDP-3-O-(R-hydroxydecanoyl)-N-acetylglucosamine incubated for 30 mins prior to substrate addition measured after 60 mins by mass spectrophotometry
T1 sequence (P47205 whole entry): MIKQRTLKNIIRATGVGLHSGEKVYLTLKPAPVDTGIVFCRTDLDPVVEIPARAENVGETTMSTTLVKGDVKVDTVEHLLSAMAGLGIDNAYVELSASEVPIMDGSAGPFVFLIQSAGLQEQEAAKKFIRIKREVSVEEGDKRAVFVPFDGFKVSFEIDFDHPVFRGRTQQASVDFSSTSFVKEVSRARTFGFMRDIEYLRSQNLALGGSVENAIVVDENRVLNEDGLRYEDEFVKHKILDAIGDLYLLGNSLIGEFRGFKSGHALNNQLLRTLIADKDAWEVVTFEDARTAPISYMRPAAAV

Citrobacter freundii = assay: Antibacterial activity against Citrobacter freundii after 16 to 20 hrs by broth microdilution method; assay type: functional
Pseudomonas aeruginosa [4] = assay: Antibacterial activity against Pseudomonas aeruginosa clinical isolates after 16 to 20 hrs by broth microdilution method; assay type: functional

Row | MIC (Pseudomonas aeruginosa [1]) | MIC (Staphylococcus aureus) | IC50 [3] | Molecule | further results
1 | > 64 µg/mL | > 64 µg/mL |  | C[C@](CCc1ccc(-c2ccccc2)cc1)(C(=O)NO)S(C)(=O)=O | 
2 | > 64 µg/mL | 64 µg/mL (≈ 178 µM) | > 92.5 nM | O=C(NO)C1(CCc2ccc(-c3ccccc3)cc2)CCCS1(=O)=O (racemic) | 
3 | 4 µg/mL (≈ 10.5 µM) | 64 µg/mL (≈ 169 µM) | 30.4 nM | C[C@@](CCc1ccc(Sc2ccccc2)cc1)(C(=O)NO)S(C)(=O)=O | 
4 | 2 µg/mL (≈ 5.12 µM) | > 64 µg/mL | < 2.47 nM | C[C@@](CCc1ccc(-c2ccc(C(N)=O)cc2)cc1)(C(=O)NO)S(C)(=O)=O | 
5 | 1 µg/mL (≈ 3 µM) | > 64 µg/mL | 13.8 nM | CS(=O)(=O)C(CCc1ccc(-c2ccccc2)cc1)C(=O)NO (racemic) | 
6 | 4 µg/mL (≈ 10.1 µM) | > 64 µg/mL | 11.9 nM | CC(CS(=O)(=O)c1ccc(-c2ccccc2)cc1)(C(=O)NO)S(C)(=O)=O (racemic) | 
7 | 8 µg/mL (≈ 20.5 µM) | 32 µg/mL (≈ 82.2 µM) | 6.78 nM | CC(C)c1cccc(-c2ccc(CC[C@](C)(C(=O)NO)S(C)(=O)=O)cc2)c1 | 
8 | 0.125 µg/mL (≈ 0.319 µM) | > 64 µg/mL | 1.2 nM | C[C@@](CCc1ccc(-c2ccc3c(c2)OCO3)cc1)(C(=O)NO)S(C)(=O)=O | MIC90 (Pseudomonas aeruginosa [2]): 1 µg/mL (≈ 2.55 µM); MIC90 (Acinetobacter baumannii): > 64 µg/mL; MIC90 (Escherichia coli): 0.5 µg/mL (≈ 1.28 µM); MIC90 (Klebsiella pneumoniae): 4 µg/mL (≈ 10.2 µM); MIC90 (Klebsiella aerogenes): 1 µg/mL (≈ 2.55 µM); MIC90 (Citrobacter freundii): 2 µg/mL (≈ 5.11 µM)
9 | 4 µg/mL (≈ 11.5 µM) | > 64 µg/mL | 29.7 nM | C[C@@](CCc1ccc(-c2cccnc2)cc1)(C(=O)NO)S(C)(=O)=O | 
10 | > 64 µg/mL | > 64 µg/mL | 92.7 nM | CC(CCc1ccc(OCc2cc[n+]([O-])cc2)cc1)(C(=O)NO)S(C)(=O)=O (racemic) | 
11 | 1 µg/mL (≈ 2.66 µM) | > 64 µg/mL | 12.9 nM | C[C@@](CCc1ccc(-c2ccc(CN)cc2)cc1)(C(=O)NO)S(C)(=O)=O | 
12 | 8 µg/mL (≈ 21.3 µM) | 32 µg/mL (≈ 85.2 µM) | 26.1 nM | CCc1ccccc1-c1ccc(CC[C@](C)(C(=O)NO)S(C)(=O)=O)cc1 | 
13 | 0.125 µg/mL (≈ 0.342 µM) | 32 µg/mL (≈ 87.6 µM) | 1.36 nM | C[C@@](CCc1ccc(-c2ccccc2F)cc1)(C(=O)NO)S(C)(=O)=O | 
14 | > 64 µg/mL | > 64 µg/mL | > 100 nM | C[C@@](CCc1ccc(-c2ccccc2C(N)=O)cc1)(C(=O)NO)S(C)(=O)=O | 
15 |  |  |  | NCC[C@H](O)C(=O)N[C@@H]1C[C@H](N)[C@@H](O[C@H]2O[C@H](CN)[C@@H](O)[C@H](O)[C@H]2O)[C@H](O)[C@H]1O[C@H]1O[C@H](CO)[C@@H](O)[C@H](N)[C@H]1O [AMIKACIN] | MIC50 (Pseudomonas aeruginosa [4]): 4 µg/mL (≈ 6.83 µM); MIC90 (Pseudomonas aeruginosa [4]): 32 µg/mL (≈ 54.6 µM)
16 | 64 µg/mL (≈ 163 µM) | > 64 µg/mL | 73.6 nM | C[C@@](CCc1ccc(-c2ccc(C(=O)O)cc2)cc1)(C(=O)NO)S(C)(=O)=O | 
17 | 1 µg/mL (≈ 2.65 µM) | > 64 µg/mL | 7.04 nM | COc1ccccc1-c1ccc(CC[C@](C)(C(=O)NO)S(C)(=O)=O)cc1 | 
18 | 2 µg/mL (≈ 4.08 µM) | > 64 µg/mL |  | C[C@@](CCc1ccc(-c2ccc(OCCCN3CCOCC3)cc2)cc1)(C(=O)NO)S(C)(=O)=O | MIC90 (Pseudomonas aeruginosa [2]): 4 µg/mL (≈ 8.15 µM); MIC90 (Acinetobacter baumannii): > 64 µg/mL; MIC90 (Escherichia coli): 0.5 µg/mL (≈ 1.02 µM); MIC90 (Klebsiella pneumoniae): 4 µg/mL (≈ 8.15 µM); MIC90 (Klebsiella aerogenes): 1 µg/mL (≈ 2.04 µM); MIC90 (Citrobacter freundii): 1 µg/mL (≈ 2.04 µM)
19 |  |  |  | C[C@H]1[C@H](NC(=O)/C(=N\OC(C)(C)C(=O)O)c2csc(N)n2)C(=O)N1S(=O)(=O)O [AZTREONAM] | MIC90 (Pseudomonas aeruginosa [2]): 64 µg/mL (≈ 147 µM); MIC90 (Acinetobacter baumannii): 32 µg/mL (≈ 73.5 µM); MIC90 (Escherichia coli): > 64 µg/mL; MIC90 (Klebsiella pneumoniae): > 64 µg/mL; MIC90 (Klebsiella aerogenes): 32 µg/mL (≈ 73.5 µM); MIC90 (Citrobacter freundii): > 64 µg/mL

Row | MIC (Pseudomonas aeruginosa [1]) | MIC (Staphylococcus aureus) | IC50 [3] | Molecule | further results
20 | 32 µg/mL (≈ 82 µM) | > 64 µg/mL | 27.8 nM | C[C@@](CCc1ccc(-c2cccc(C(N)=O)c2)cc1)(C(=O)NO)S(C)(=O)=O | 
21 | 16 µg/mL (≈ 53.1 µM) | > 64 µg/mL | > 100 nM | COc1ccc(CCC(C)(C(=O)NO)S(C)(=O)=O)cc1 (racemic) | 
22 | 32 µg/mL (≈ 77.4 µM) | 64 µg/mL (≈ 155 µM) | 22.1 nM | C[C@@](CCc1ccc(-c2cccc(-n3cccn3)c2)cc1)(C(=O)NO)S(C)(=O)=O | 
23 | 0.5 µg/mL (≈ 1.31 µM) | 32 µg/mL (≈ 83.8 µM) | 3.54 nM | C[C@@](CCc1ccc(-c2cccc(Cl)c2)cc1)(C(=O)NO)S(C)(=O)=O | 
24 | 16 µg/mL (≈ 59 µM) | > 64 µg/mL | > 100 nM | C[C@@](CCc1ccccc1)(C(=O)NO)S(C)(=O)=O | 
25 |  |  |  | POLYMYXIN B | MIC50 (Pseudomonas aeruginosa [4]): 0.5 µg/mL; MIC90 (Pseudomonas aeruginosa [4]): 1 µg/mL
26 |  |  |  | CC(C)(O/N=C(\C(=O)N[C@@H]1C(=O)N2C(C(=O)[O-])=C(C[n+]3ccccc3)CS[C@H]12)c1csc(N)n1)C(=O)O [CEFTAZIDIME] | MIC50 (Pseudomonas aeruginosa [4]): 16 µg/mL (≈ 29.3 µM); MIC90 (Pseudomonas aeruginosa [4]): > 64 µg/mL
27 | 4 µg/mL (≈ 11.4 µM) | > 64 µg/mL | 31.4 nM | CC(COc1ccc(-c2ccccc2)cc1)(C(=O)NO)S(C)(=O)=O (racemic) | 
28 | 4 µg/mL (≈ 11.3 µM) | 64 µg/mL (≈ 180 µM) | 10.1 nM | CC(CCc1ccc(OC2CCCC2)cc1)(C(=O)NO)S(C)(=O)=O (racemic) | 
29 | 0.25 µg/mL (≈ 0.684 µM) | > 64 µg/mL | 1.74 nM | C[C@@](CCc1ccc(-c2ccc(F)cc2)cc1)(C(=O)NO)S(C)(=O)=O | MIC90 (Pseudomonas aeruginosa [2]): 1 µg/mL (≈ 2.74 µM); MIC90 (Acinetobacter baumannii): 32 µg/mL (≈ 87.6 µM); MIC90 (Escherichia coli): 1 µg/mL (≈ 2.74 µM); MIC90 (Klebsiella pneumoniae): 8 µg/mL (≈ 21.9 µM); MIC90 (Klebsiella aerogenes): 2 µg/mL (≈ 5.47 µM); MIC90 (Citrobacter freundii): 4 µg/mL (≈ 10.9 µM)
30 | 0.5 µg/mL (≈ 1.31 µM) | 16 µg/mL (≈ 41.9 µM) | < 1.05 nM | C[C@@](CCc1ccc(-c2ccc(Cl)cc2)cc1)(C(=O)NO)S(C)(=O)=O | 
31 | 2 µg/mL (≈ 5.47 µM) | 64 µg/mL (≈ 175 µM) | 9.04 nM | CC(CSc1ccc(-c2ccccc2)cc1)(C(=O)NO)S(C)(=O)=O (racemic) | 
32 | 32 µg/mL (≈ 69.2 µM) | 32 µg/mL (≈ 69.2 µM) | 9.49 nM | CC(CCc1ccc(-c2ccc(OCCCNC(=N)N)cc2)cc1)(C(=O)NO)S(C)(=O)=O (racemic) | 
33 | 2 µg/mL (≈ 5.3 µM) | > 64 µg/mL | 5.16 nM | CC(CCc1ccc(OCc2ccccc2)cc1)(C(=O)NO)S(C)(=O)=O (racemic) | 
34 | 64 µg/mL (≈ 156 µM) | 32 µg/mL (≈ 78.1 µM) | > 67.9 nM | CC(CCc1ccc(-c2ccccc2)cc1)(C(=O)NO)S(=O)(=O)c1ccccc1 (racemic) | 
35 | 8 µg/mL (≈ 17.8 µM) | > 64 µg/mL | 21.2 nM | C[C@@](CCc1ccc(-c2ccc(OCCCC(=O)O)cc2)cc1)(C(=O)NO)S(C)(=O)=O | 
36 | 2 µg/mL (≈ 4.76 µM) | > 64 µg/mL | 12.7 nM | CC(CCc1ccc(-c2ccc(OCCCN)cc2)cc1)(C(=O)NO)S(C)(=O)=O (racemic) | 
37 | 4 µg/mL (≈ 10.6 µM) | > 64 µg/mL | 21.6 nM | CC(CCc1ccc(OCc2ccncc2)cc1)(C(=O)NO)S(C)(=O)=O (racemic) | 
38 | 0.5 µg/mL (≈ 1.23 µM) | > 64 µg/mL | 1.85 nM | C[C@@](CCc1ccc(-c2ccc(C(=O)CO)cc2)cc1)(C(=O)NO)S(C)(=O)=O | MIC90 (Pseudomonas aeruginosa [2]): 1 µg/mL (≈ 2.47 µM); MIC90 (Acinetobacter baumannii): > 64 µg/mL; MIC90 (Escherichia coli): 2 µg/mL (≈ 4.93 µM); MIC90 (Klebsiella pneumoniae): 8 µg/mL (≈ 19.7 µM); MIC90 (Klebsiella aerogenes): 4 µg/mL (≈ 9.87 µM); MIC90 (Citrobacter freundii): 4 µg/mL (≈ 9.87 µM)

Row | Molecule | MIC (Pseudomonas aeruginosa [1]) | MIC (Staphylococcus aureus) | IC50 [3] | further results
39 | O=C(O)c1cn(C2CC2)c2cc(N3CCNCC3)c(F)cc2c1=O [CIPROFLOXACIN] |  | 0.25 µg/mL (≈ 0.754 µM) |  | MIC90 (Pseudomonas aeruginosa [2]): 64 µg/mL (≈ 193 µM); MIC90 (Acinetobacter baumannii): 64 µg/mL (≈ 193 µM); MIC90 (Escherichia coli): > 64 µg/mL; MIC90 (Klebsiella pneumoniae): 64 µg/mL (≈ 193 µM); MIC90 (Klebsiella aerogenes): 1 µg/mL (≈ 3.02 µM)
40 | C[C@@H](O)[C@H](NC(=O)c1ccc(C#Cc2ccc(CN3CCOCC3)cc2)cc1)C(=O)NO | 1 µg/mL (≈ 2.29 µM) | > 64 µg/mL |  | MIC90 (Pseudomonas aeruginosa [2]): 4 µg/mL (≈ 9.14 µM); MIC90 (Acinetobacter baumannii): > 64 µg/mL; MIC90 (Escherichia coli): 0.25 µg/mL (≈ 0.571 µM); MIC90 (Klebsiella pneumoniae): 2 µg/mL (≈ 4.57 µM); MIC90 (Klebsiella aerogenes): 0.5 µg/mL (≈ 1.14 µM); MIC90 (Citrobacter freundii): 0.5 µg/mL (≈ 1.14 µM)
